# Molecular target: Solute carrier organic anion transporter family member 2A1 (Rattus norvegicus, UniProt Q00910)
# Assay: TP_TRANSPORTER: inhibition of PGE2 uptake in PGT-expressing HeLa cells
# Assay type: functional, cell-based
row,Ki,SMILES
1,0.286 µM,CCCCC[C@H](O)/C=C/[C@H]1C=CC(=O)[C@@H]1CCCCCCC(=O)O [PROSTAGLANDIN A1]
2,0.0712 µM,CCCCC[C@H](O)/C=C/C1=C(CCCCCCC(=O)O)C(=O)CC1 [PROSTAGLANDIN B1]
3,0.162 µM,CCCCC[C@H](O)/C=C/[C@H]1C(=O)C[C@H](O)[C@@H]1CCCCCCC(=O)O [PROSTAGLANDIN D1]

row,SMILES,Ki
1,CCCCC[C@H](O)/C=C/[C@@H]1[C@@H](C/C=C\CCCC(=O)O)[C@@H]2C[C@H]1OO2 [PROSTAGLANDIN H2],0.0382 µM
